Results: US20230322815A1, “NOVEL COMPOUNDS AND THERAPEUTIC USES THEREOF” (University of Huddersfield, priority 2020, published 2023)

Key:
AMPK = experiment: Cell-free kinase screen; type: biochemical, human; details: 10 μM complex
Description: FIG. 9. Effects of [L2Zn3]^6+ and [L2Cu3]^6+ on the activity of purified human kinases. a,b, Percentage inhibition of the indicated kinases by [L2Zn3]^6+ (a) and [L2Cu3]^6+ (b) respectively at a concentration of 10 μM; full results are presented in the ESI. c,d, Kinases whose activity is stimulated by [L2Zn3]^6+ (c) or [L2Cu3]^6+ (d) complexes. e,f, Kinome map showing kinases inhibited (red) or stimulated (green) by [L2Zn3]^6+ (e) or [L2Cu3]^6+ (f). III ustration reproduced courtesy of Cell Signalling Technology Inc (www.cellsignal.com)
FIG. 16. The effect of [L2Zn3]^6+ and [L2Cu3]^6+ on the activity of recombinant human kinases. The compounds were submitted to the MRC Protein Phosphorylation and Ubiquitination Unit International Centre for Kinase Profiling (University of Dundee) and tested at a concentration of 10 μM against 140 human kinases (Premier Screen).
Given the ability of the Zn^2+ complex to dephosphorylate amino acids serine, tyrosine and threonine (FIG. 6) and the Cu^2+ complex to bind phenyl phosphate (FIG. 3), it was examined whether the complexes affect the activity of kinases. This was assessed in a cell-free screen of 140 kinases using purified recombinant human kinases and substrate peptides incubated in the presence of ^33P ATP and 10 μM complex or solvent control. […]

[1] = Phosphatase activity: hydrolysis of phenyl phosphate
Description: FIG. 6. Phosphatase activity of [L2Zn3]^6+. ^31P NMR spectra using different substrates including PhOPO3 (spectra A to D), serine phosphate (spectra E to H), threonine phosphate (spectra I to L) and tyrosine phosphate (spectra M to P). Specific details for each ^31P NMR spectra are as follows: Spectra A, E, I and M represent substrate alone (44 hrs incubated @ 37° C.); Spectra B, F, J and N represents [L2Zn3]^6+ plus substrate (t=0 min); Spectra C, G, K and O represents [L2Zn3]^6+ plus substrate incubated @ 37° C. for 19 hours; Spectra D, H, L and […] represents [L2Zn3]^6+ plus substrate incubated @ 37° C. for 44 hours. The ^31P NMR of [L2Zn3(PO4)]^3+ gives a signal at 8.6 ppm.
Only [L2Zn3(PO4)]^3+ was observed, coupled with a rapid yellowing of the solution due to the formation of 4-nitrophenolate.
The rate of substrate hydrolysis is also dependent upon the metal used in the self-assembly process.

HT29 tumors = experiment: Chick embryo chorioallantoic membrane (CAM) assay, in ovo efficacy; type: in vivo, human tumor cells on chick embryo CAM; details: for dose giving statistically significant regression of tumor growth (mean tumor weight at E18), comparable to SoC: L2Zn3 26.6, 53.2, 106.4 μM, L2Cu3 23.8, 65.7, 131.46 μM, SoC doxorubicin; for HT29 tumor cell metastasis to the lower CAM: any of the tested doses, data not shown
Description: FIG. 23. Activity of [L2Cu3]^6+ and [L2Zn3]^6+ against primary HT29 tumors. The results presented represent the mean tumour weight ±SEM following treatment at 3 different doses of [L2Cu3]^6+ and [L2Zn3]^6+: L2Zn3 [1]=26.6 μM, L2Zn3 [2]=53.2 μM, L2Zn3 [3]=106.4 μM; L2Cu3 [1]=23.8 μM, L2Cu3[2]=65.7 μM, L2Cu3[3]=131.46 μM. SoC doxorubicin. Statistical analysis by one way ANOVA (*): 0.05≥p value >0.01; (**): 0.01≥p value >0.001; (***): 0.001≥p value; (****): 0.0001≥p value. Number per experimental group n=10-14.
[L2Cu3]^6+ and [L2Zn3]^6+ were evaluated at three different doses for in ovo anti-cancer activity, toxicity and anti-metastatic activity against tumors initiated from three different human cancer cell line models (H460, HT29, HCT116), in the chick embryo chorioallantoic membrane (CAM) assay.
Each compound was provided to the contract research organisation (CRO) Inovotion (La Tronche, France) conducting the in ovo study, as a powder pre-weighed in single vials (2 equivalents of ligand, 3 equivalents of metal; and stored at room temperature). Before use, this was then dissolved in DMSO to 50 mM to generate a stock solution and further freshly diluted in RPM11640 or McCoys aqueous cell culture media for administration.
A standard of care (SoC) drug for the particular tumour type was tested concurrently as a comparative control for in vivo efficacy and toxicity evaluation. A solvent control served as a negative control for both SoC and experimental compounds.
10^6 tumor cells (H460, HT29 or HCT116) were grafted onto the upper chorioallantoic membrane (CAM) of the developing chick embryo on embryonic day 9 (E9). Access to the upper CAM was through a small hole drilled through the eggshell of fertilized White Leghorn eggs (into the air sac) on E9 (15 eggs per experimental group).
100 μl of freshly prepared experimental compound, vehicle control or standard-of-care (SoC) drug at their working concentrations were pipetted onto the tumor graft at E11, E13, E15 and E17. On day E18, the upper CAM (with tumor) was removed, washed by PBS buffer and then directly transferred in PFA (fixation for 48 hrs). After that, tumors were carefully cut away from normal CAM tissue and weighed.
On day E18, a 1 cm^2 portion of the lower CAM was collected (n=8 per group), stored at −20° C. and later processed to extract DNA. Samples were analysed for human genomic DNA (qPCR for Alu sequences) as a quantitative marker of tumor metastasis to the lower CAM.

Structure (SMILES) | effect on AMPK activity in the kinase screen (AMPK) | hydrolysis of phenyl phosphate ([1]; solid-state and ESI-MS data) | dose giving statistically significant regression of tumor growth (mean tumor weight at E18), comparable to SoC (HT29 tumors) | HT29 tumor cell metastasis to the lower CAM (HT29 tumors) | hydrolysis of PhOPO3^2− by 31P NMR ([1]; 25%:75% DMSO and buffered H2O (HEPES pH 7.5), 37° C., after 44 hrs)
[Cu+2].[Cu+2].[Cu+2].c1ccc(-c2csc(NCCN(CCNc3nc(-c4ccccn4)cs3)CCNc3nc(-c4ccccn4)cs3)n2)nc1.c1ccc(-c2csc(NCCN(CCNc3nc(-c4ccccn4)cs3)CCNc3nc(-c4ccccn4)cs3)n2)nc1 [[L2Cu3]^6+] | inhibition of AMPK | does not hydrolyse phenyl phosphate | highest tested dose | no reduction | 
[Zn+2].[Zn+2].[Zn+2].c1ccc(-c2csc(NCCN(CCNc3nc(-c4ccccn4)cs3)CCNc3nc(-c4ccccn4)cs3)n2)nc1.c1ccc(-c2csc(NCCN(CCNc3nc(-c4ccccn4)cs3)CCNc3nc(-c4ccccn4)cs3)n2)nc1 [[L2Zn3]^6+] | inhibition of AMPK |  | highest tested dose | no reduction | virtually no signal corresponding to PhOPO3^2− is observed
